Source: ChEMBL document CHEMBL4507299, “Data for DCP probe PF-04554878” (2021)

Legend:
[1] = molecular target: Serine/threonine-protein kinase PAK 2 (Homo sapiens) (UniProt Q13177)
[2] = molecular target: Rho-associated protein kinase 2 (Homo sapiens) (UniProt O75116)
[3] = molecular target: Sigma intracellular receptor 2 (Homo sapiens, UniProt Q5BJF2); conditions: Compound concentration 10.0 uM
[4] = molecular target: Muscarinic acetylcholine receptor M2 (Homo sapiens) (UniProt P08172); conditions: Compound concentration 10.0 uM
[5] = molecular target: Tyrosine-protein kinase ABL1 (Homo sapiens, UniProt P00519)
[6] = molecular target: 3-phosphoinositide-dependent protein kinase 1 (Homo sapiens) (UniProt O15530)
[7] = molecular target: Leukocyte tyrosine kinase receptor (Homo sapiens) (UniProt P29376)
[8] = molecular target: MAP kinase-activated protein kinase 5 (Homo sapiens) (UniProt Q8IW41)
[9] = molecular target: Serine/threonine-protein kinase PRP4 homolog (Homo sapiens) (UniProt Q13523)
[10] = molecular target: Homeodomain-interacting protein kinase 2 (Homo sapiens) (UniProt Q9H2X6)
[11] = molecular target: Serine/threonine-protein kinase RIO2 (Homo sapiens) (UniProt Q9BVS4)
[12] = system: Mast/stem cell growth factor receptor Kit (Homo sapiens), P10721 [V559D,V654A]
[13] = system: Tyrosine-protein kinase ABL1 (Homo sapiens), P00519 [Q252H]
[14] = molecular target: Cyclin-dependent kinase 16 (Homo sapiens) (UniProt Q00536)
[15] = system: Phosphatidylinositol 4,5-bisphosphate 3-kinase catalytic subunit alpha isoform (Homo sapiens), P42336 [E545K]
[16] = molecular target: STE20-like serine/threonine-protein kinase (Homo sapiens) (UniProt Q9H2G2)
[17] = molecular target: Serine/threonine-protein kinase PLK1 (Homo sapiens) (UniProt P53350)
[18] = molecular target: Insulin receptor-related protein (Homo sapiens) (UniProt P14616)
[19] = molecular target: Ephrin type-A receptor 3 (Homo sapiens) (UniProt P29320)
[20] = molecular target: Bone morphogenetic protein receptor type-1A (Homo sapiens) (UniProt P36894)
[21] = molecular target: TRAF2 and NCK-interacting protein kinase (Homo sapiens) (UniProt Q9UKE5)
[22] = molecular target: Serine/threonine-protein kinase ICK (Homo sapiens) (UniProt Q9UPZ9)
[23] = molecular target: Myosin light chain kinase, smooth muscle (Homo sapiens) (UniProt Q15746)
[24] = molecular target: Mitogen-activated protein kinase kinase kinase 5 (Homo sapiens) (UniProt Q99683)
[25] = molecular target: Serine/threonine-protein kinase D1 (Homo sapiens) (UniProt Q15139)
[26] = system: Tyrosine-protein kinase ABL1 (Homo sapiens), P00519 [F317I]
[27] = molecular target: NUAK family SNF1-like kinase 1 (Homo sapiens) (UniProt O60285)
[28] = molecular target: Tyrosine-protein kinase Blk (Homo sapiens) (UniProt P51451)
[29] = molecular target: Muscarinic acetylcholine receptor M3 (Homo sapiens) (UniProt P20309); conditions: Compound concentration 10.0 uM
[30] = molecular target: Serine/threonine-protein kinase TAO2 (Homo sapiens) (UniProt Q9UL54)
[31] = molecular target: Mitogen-activated protein kinase kinase kinase 3 (Homo sapiens) (UniProt Q99759)
[32] = Compound concentration 100.0 nM
[33] = Compound concentration 1000.0 nM

Chain of Mitogen-activated protein kinase kinase kinase 3 (Homo sapiens) (Q99759 whole entry): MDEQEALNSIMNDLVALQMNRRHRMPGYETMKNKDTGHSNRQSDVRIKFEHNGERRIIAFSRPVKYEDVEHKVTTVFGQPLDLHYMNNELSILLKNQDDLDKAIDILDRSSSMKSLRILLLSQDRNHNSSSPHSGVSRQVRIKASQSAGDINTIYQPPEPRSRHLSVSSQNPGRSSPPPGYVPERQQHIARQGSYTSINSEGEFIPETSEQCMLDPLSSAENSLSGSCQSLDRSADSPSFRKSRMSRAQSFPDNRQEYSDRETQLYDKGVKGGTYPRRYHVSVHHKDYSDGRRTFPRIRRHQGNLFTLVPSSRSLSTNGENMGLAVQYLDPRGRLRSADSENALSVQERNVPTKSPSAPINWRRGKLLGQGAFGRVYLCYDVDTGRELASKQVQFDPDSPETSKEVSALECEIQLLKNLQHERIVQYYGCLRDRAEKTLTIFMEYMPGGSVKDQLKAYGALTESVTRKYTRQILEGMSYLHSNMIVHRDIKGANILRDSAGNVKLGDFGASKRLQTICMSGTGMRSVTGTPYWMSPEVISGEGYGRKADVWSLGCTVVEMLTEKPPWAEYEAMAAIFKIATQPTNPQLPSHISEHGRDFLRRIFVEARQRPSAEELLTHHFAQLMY
Chain of Insulin receptor-related protein (Homo sapiens) (P14616 27-742 limits assumed): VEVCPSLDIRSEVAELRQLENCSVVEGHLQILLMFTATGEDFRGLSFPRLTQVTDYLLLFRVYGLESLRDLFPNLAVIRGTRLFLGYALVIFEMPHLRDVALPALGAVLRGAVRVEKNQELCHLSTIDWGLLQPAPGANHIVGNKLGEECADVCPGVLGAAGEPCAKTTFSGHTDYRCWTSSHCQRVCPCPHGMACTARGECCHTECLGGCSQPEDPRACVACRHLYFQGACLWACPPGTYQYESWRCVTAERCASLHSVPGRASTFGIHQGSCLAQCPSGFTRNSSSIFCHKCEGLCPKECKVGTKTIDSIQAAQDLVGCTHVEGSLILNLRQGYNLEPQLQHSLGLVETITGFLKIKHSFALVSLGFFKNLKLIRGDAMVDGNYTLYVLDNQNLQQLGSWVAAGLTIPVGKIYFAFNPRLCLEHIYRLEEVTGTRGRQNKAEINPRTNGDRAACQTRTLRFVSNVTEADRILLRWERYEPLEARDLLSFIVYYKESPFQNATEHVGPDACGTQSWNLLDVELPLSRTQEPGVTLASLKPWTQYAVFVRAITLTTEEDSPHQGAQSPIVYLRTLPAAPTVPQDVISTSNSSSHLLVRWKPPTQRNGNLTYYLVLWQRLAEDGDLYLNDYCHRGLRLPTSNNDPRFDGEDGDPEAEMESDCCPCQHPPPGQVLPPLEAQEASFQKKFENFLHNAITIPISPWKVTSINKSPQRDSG
Chain of Insulin receptor-related protein (Homo sapiens) (P14616 747-1297 limits assumed): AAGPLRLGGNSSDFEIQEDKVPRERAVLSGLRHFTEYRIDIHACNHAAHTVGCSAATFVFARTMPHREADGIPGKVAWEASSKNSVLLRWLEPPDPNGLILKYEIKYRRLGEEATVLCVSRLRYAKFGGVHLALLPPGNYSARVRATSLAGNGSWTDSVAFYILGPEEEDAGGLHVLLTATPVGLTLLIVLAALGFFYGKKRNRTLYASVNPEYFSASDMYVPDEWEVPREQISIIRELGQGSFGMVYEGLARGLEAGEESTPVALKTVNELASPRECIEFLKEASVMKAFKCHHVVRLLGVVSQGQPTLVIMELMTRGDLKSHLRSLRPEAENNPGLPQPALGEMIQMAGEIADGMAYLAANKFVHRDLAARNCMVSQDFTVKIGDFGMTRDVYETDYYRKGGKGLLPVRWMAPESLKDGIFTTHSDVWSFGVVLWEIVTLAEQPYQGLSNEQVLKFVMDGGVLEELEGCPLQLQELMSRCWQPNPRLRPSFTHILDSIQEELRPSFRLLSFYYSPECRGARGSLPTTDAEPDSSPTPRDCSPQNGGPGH
Chain of Ephrin type-A receptor 3 (Homo sapiens) (P29320 whole entry): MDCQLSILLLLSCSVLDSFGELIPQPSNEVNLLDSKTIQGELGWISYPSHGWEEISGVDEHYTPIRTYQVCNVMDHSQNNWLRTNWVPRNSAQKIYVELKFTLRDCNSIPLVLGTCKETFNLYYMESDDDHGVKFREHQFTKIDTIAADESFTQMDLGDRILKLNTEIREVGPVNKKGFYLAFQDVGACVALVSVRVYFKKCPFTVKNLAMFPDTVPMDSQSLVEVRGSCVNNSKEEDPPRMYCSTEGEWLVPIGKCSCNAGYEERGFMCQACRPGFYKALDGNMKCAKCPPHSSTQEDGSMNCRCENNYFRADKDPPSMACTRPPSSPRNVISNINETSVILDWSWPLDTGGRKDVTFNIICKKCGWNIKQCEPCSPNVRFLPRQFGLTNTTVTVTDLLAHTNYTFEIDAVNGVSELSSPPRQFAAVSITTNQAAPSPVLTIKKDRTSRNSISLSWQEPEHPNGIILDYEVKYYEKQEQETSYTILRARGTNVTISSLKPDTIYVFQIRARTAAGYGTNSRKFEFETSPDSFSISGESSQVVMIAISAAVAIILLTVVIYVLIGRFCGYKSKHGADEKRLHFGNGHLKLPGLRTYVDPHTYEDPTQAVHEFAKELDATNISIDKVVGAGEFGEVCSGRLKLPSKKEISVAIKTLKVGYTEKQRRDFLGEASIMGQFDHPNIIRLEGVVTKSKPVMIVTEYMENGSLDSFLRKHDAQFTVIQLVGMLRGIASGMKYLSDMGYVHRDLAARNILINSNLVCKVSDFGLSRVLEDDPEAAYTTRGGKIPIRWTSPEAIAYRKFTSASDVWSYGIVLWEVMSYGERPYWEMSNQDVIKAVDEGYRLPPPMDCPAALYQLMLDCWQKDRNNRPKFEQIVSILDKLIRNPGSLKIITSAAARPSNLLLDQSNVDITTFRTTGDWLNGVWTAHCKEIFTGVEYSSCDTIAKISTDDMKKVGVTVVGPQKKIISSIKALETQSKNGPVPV
Chain of 3-phosphoinositide-dependent protein kinase 1 (Homo sapiens) (O15530 whole entry): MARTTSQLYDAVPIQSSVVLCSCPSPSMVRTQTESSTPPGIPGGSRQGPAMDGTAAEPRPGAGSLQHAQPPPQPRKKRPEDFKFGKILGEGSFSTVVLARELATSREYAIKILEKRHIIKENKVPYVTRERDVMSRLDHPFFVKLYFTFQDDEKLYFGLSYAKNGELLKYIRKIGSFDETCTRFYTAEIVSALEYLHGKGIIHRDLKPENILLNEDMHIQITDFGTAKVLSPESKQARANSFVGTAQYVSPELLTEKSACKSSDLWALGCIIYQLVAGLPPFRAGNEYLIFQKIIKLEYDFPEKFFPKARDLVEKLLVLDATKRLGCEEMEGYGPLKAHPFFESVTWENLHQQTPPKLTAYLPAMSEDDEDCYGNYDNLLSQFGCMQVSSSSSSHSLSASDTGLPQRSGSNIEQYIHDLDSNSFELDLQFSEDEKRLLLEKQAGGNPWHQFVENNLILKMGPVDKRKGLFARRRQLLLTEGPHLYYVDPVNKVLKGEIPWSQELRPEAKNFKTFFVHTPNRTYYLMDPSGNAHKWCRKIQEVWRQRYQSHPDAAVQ
Chain of MAP kinase-activated protein kinase 5 (Homo sapiens) (Q8IW41 whole entry): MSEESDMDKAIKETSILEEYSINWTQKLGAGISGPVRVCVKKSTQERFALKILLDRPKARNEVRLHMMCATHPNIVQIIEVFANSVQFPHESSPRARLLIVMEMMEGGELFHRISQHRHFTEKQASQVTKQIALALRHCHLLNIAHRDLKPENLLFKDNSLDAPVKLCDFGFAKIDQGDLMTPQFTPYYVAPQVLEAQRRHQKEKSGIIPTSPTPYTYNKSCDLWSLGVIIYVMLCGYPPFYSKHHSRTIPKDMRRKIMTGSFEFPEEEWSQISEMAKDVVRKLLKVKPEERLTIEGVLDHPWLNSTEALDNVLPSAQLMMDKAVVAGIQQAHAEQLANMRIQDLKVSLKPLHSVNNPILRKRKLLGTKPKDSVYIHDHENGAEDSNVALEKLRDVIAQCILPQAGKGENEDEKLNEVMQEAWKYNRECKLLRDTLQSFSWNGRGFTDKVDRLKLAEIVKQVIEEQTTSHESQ
Chain of Bone morphogenetic protein receptor type-1A (Homo sapiens) (P36894 whole entry): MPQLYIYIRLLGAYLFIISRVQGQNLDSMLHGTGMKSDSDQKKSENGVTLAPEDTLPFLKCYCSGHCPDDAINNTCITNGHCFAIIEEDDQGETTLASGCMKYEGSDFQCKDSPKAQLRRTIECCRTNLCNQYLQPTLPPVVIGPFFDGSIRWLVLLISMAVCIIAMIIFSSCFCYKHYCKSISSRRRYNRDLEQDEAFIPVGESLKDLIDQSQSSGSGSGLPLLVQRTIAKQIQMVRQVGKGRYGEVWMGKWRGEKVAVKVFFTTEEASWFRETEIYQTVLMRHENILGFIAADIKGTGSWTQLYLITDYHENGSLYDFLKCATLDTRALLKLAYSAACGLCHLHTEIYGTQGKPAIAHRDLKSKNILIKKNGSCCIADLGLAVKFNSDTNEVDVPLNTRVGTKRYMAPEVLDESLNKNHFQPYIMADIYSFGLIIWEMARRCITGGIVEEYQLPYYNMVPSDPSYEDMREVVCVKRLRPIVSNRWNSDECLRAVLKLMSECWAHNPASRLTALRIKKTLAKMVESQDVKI
Chain of Serine/threonine-protein kinase PAK 2 (Homo sapiens) (Q13177 whole entry): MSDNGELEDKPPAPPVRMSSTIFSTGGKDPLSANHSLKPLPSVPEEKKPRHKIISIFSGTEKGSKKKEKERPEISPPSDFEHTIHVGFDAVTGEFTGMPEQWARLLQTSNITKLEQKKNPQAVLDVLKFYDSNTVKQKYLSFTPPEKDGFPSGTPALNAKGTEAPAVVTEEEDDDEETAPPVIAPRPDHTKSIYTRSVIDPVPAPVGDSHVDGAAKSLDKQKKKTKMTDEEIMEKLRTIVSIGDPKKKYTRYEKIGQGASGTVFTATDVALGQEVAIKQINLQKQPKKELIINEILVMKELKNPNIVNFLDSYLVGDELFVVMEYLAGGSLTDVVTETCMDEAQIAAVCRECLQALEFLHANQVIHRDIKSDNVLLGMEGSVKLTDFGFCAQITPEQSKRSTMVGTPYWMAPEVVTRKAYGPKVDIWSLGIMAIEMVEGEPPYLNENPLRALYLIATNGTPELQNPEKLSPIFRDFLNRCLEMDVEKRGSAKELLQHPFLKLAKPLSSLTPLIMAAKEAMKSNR

## CNC(=O)c1ccc(Nc2ncc(C(F)(F)F)c(NCc3nccnc3N(C)S(C)(=O)=O)n2)cc1 [DEFACTINIB]
[1]; [32]
  residual activity: 72%
[2]; [32]
  residual activity: 100%
[3]
  inhibition: 48.1%
[4]
  inhibition: 19.5%
[5]; [32]
  residual activity: 100%
[6]; [32]
  residual activity: 81%
[7]; [32]
  residual activity: 89%
[8]; [32]
  residual activity: 76%
[9]; [32]
  residual activity: 69%
[10]; [32]
  residual activity: 37%
[11]; [32]
  residual activity: 85%
[12]; [32]
  residual activity: 100%
[13]; [32]
  residual activity: 100%
[14]; [32]
  residual activity: 99%
[15]; [32]
  residual activity: 100%
[16]; [32]
  residual activity: 53%
[17]; [32]
  residual activity: 84%
[18]; [32]
  residual activity: 95%
[19]; [32]
  residual activity: 82%
[20]; [32]
  residual activity: 100%
[21]; [32]
  residual activity: 65%
[22]; [32]
  residual activity: 68%
[23]; [32]
  residual activity: 75%
[24]; [32]
  residual activity: 100%
[25]; [32]
  residual activity: 100%
[26]; [32]
  residual activity: 100%
[27]; [32]
  residual activity: 31%
[28]; [32]
  residual activity: 78%
[29]
  inhibition: 23.8%
[30]; [32]
  residual activity: 92%
[31]; [32]
  residual activity: 81%

## CN(c1ccnc(CNc2nc(Nc3ccc4c(c3)CC(=O)N4)ncc2C(F)(F)F)n1)S(C)(=O)=O [PF-00911705]
[1]; [33]
  residual activity: 83%
[2]; [33]
  residual activity: 69%
[3]
  inhibition: 60.3%
[4]
  inhibition: -2.08%
[5]; [33]
  residual activity: 40%
[6]; [33]
  residual activity: 54%
[7]; [33]
  residual activity: 100%
[8]; [33]
  residual activity: 94%
[9]; [33]
  residual activity: 23%
[10]; [33]
  residual activity: 54%
[11]; [33]
  residual activity: 81%
[12]; [33]
  residual activity: 67%
[13]; [33]
  residual activity: 49%
[14]; [33]
  residual activity: 82%
[15]; [33]
  residual activity: 100%
[16]; [33]
  residual activity: 41%
[17]; [33]
  residual activity: 7.6%
[18]; [33]
  residual activity: 100%
[19]; [33]
  residual activity: 72%
[20]; [33]
  residual activity: 89%
[21]; [33]
  residual activity: 77%
[22]; [33]
  residual activity: 100%
[23]; [33]
  residual activity: 71%
[24]; [33]
  residual activity: 100%
[25]; [33]
  residual activity: 100%
[26]; [33]
  residual activity: 79%
[27]; [33]
  residual activity: 21%
[28]; [33]
  residual activity: 40%
[29]
  inhibition: -4.64%
[30]; [33]
  residual activity: 58%
[31]; [33]
  residual activity: 44%
